According to ChEMBL document CHEMBL5331119, “Basic Nitrogen (BaN) Is a Key Property of Antimalarial Chemical Space” (J Med Chem, 2023):
One block for each compound: values may come before it.

What was measured:
Plasmodium falciparum [1] = assay: Antiplasmodial activity against Plasmodium falciparum NF54 incubated for 48 hrs by lactate dehydrogenase assay; assay type: functional, organism-based; conditions: NF54, 48 h
[2] = target: human dihydroorotate dehydrogenase (DHODH), mitochondrial (Homo sapiens, UniProt Q02127); assay: in vitro
Description: Inhibition of human DHODH

Plasmodium falciparum [3] = assay: Antiplasmodial activity against Plasmodium falciparum 3D7; assay type: functional, organism-based
Plasmodium falciparum [4] = assay: Antimalarial activity against Plasmodium falciparum FcB1; assay type: functional, organism-based
Plasmodium falciparum [5] = assay: Antiplasmodial activity against Plasmodium falciparum K1 assessed as inhibition of parasite growth by microdilution analysis; assay type: functional, organism-based
Plasmodium falciparum [6] = assay: Antiplasmodial activity against Plasmodium falciparum NF54 assessed as inhibition of parasite growth by microdilution analysis; assay type: functional, organism-based

human dihydroorotate dehydrogenase (DHODH), mitochondrial, sequence (Q02127 whole entry): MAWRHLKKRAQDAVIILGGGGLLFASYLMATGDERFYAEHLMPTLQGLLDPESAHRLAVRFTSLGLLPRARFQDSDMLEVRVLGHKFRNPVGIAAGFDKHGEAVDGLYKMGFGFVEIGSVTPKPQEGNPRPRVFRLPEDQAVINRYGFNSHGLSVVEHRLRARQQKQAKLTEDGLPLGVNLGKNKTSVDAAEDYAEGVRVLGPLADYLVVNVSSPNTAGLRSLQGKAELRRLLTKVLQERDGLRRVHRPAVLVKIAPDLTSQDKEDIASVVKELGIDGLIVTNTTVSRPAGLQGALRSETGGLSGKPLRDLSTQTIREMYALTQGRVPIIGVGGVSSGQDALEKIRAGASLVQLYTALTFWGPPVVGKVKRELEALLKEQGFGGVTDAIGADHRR

IC50 (Plasmodium falciparum [1]): 5260 nM
SMILES: Cc1ccc(S(=O)(=O)N2CCN(c3nc4cc(Cl)ccc4n3Cc3ccccc3)CC2)cc1

IC50 [2]: > 100000 nM
SMILES: Cc1[nH]c(C(=O)NC2CC2)c(C)c1Cc1ccc(C(F)(F)F)nc1

IC50 [2]: > 100000 nM
EC50 (Plasmodium falciparum [3]): 9 nM
SMILES: CCOC(=O)c1[nH]c(C)c(Cc2ccc(C(F)(F)F)nc2)c1C

SMILES: C[C@H]1[C@H](C)CC[C@]2(C(=O)O)CC[C@]3(C)C(=CC[C@@H]4[C@@]5(C)CC[C@H](O)C(C)(C)[C@@H]5CC[C@]43C)[C@H]12 [URSOLIC ACID]
IC50 (Plasmodium falciparum [4]): 52900 nM

SMILES: CCN(CC)CCCC(C)Nc1cccc2cc(Cl)ccc12 (stereo not drawn)
IC50 (Plasmodium falciparum [5]): 3000 nM
IC50 (Plasmodium falciparum [6]): 3000 nM

IC50 (Plasmodium falciparum [1]): > 1000 nM
SMILES: O=C1CN(c2nc3cc(Cl)ccc3n2Cc2ccccc2)CCN1

SMILES: CCN(CC)CCCC(C)Cc1ccnc2cc(Cl)ccc12 (stereo not drawn)
IC50 (Plasmodium falciparum [5]): 3000 nM
IC50 (Plasmodium falciparum [6]): 3000 nM

IC50 (Plasmodium falciparum [4]): 80 nM
SMILES: C[C@H]1[C@H](C)CC[C@]2(C(=O)NCCCN3CCN(CCCNCc4ccc(O)cc4)CC3)CC[C@]3(C)C(=CC[C@@H]4[C@@]5(C)CC[C@H](O)C(C)(C)[C@@H]5CC[C@]43C)[C@H]12 (single isomer, unassigned)

IC50 (Plasmodium falciparum [1]): > 1000 nM
SMILES: CC(=O)N1CCN(c2nc3cc(Cl)ccc3n2Cc2ccccc2)CC1

IC50 [2]: > 100000 nM
EC50 (Plasmodium falciparum [3]): 61 nM
SMILES: CCOC(=O)c1[nH]c(C)c(Cc2ccc(C(F)(F)F)cc2)c1C

IC50 [2]: > 100000 nM
EC50 (Plasmodium falciparum [3]): 230 nM
SMILES: CCOC(=O)c1[nH]c(C)c(Cc2ccc(OCC)cc2)c1C

SMILES: CC[C@H]1OC(=O)[C@H](C)[C@@H](O[C@H]2C[C@@](C)(OC)[C@@H](O)[C@H](C)O2)[C@H](C)[C@@H](O[C@@H]2O[C@H](C)C[C@H](N(C)C)[C@H]2O)[C@](C)(O)C[C@@H](C)CN(C)[C@H](C)[C@@H](O)[C@]1(C)O [AZITHROMYCIN]
IC50 (Plasmodium falciparum [3]): 2650 nM

IC50 [2]: > 100000 nM
SMILES: Cc1c(Cc2cnc(C(F)(F)F)nc2)c[nH]c1C(=O)NC1CC1
